Test results from PMC3363220, “Specific PKG inhibitors: do they really exist?” (BMC Pharmacology, 2011).
Where a SMILES comes first, the peptide text is derived from it. [ ]: non-standard residue; d: D form.

What was measured:
[1] = tested on: platelets; experiment: thrombin-induced platelet aggregation; type: cell-based; conditions: preincubation of platelets with 10 nM (D)-DT2
Procedure: (§1) We tested the inhibitory effects of (D)-DT2 and DT3 on PKG and its effects on intact cells. […] It should be noted that the measured PKG concentration is about 7 µM in platelets and 0.1 – 0.5 µM in all other tested cells.

[2] = tested on: PKA; experiment: inhibition of PKA; type: biochemical; conditions: up to 1 µM (D)-DT2
[3] = tested on: PKG; experiment: PKG activity in broken platelet cell experiments; type: biochemical; conditions: broken platelet cells, measured PKG concentration about 7 µM in platelets
Procedure: as §1

[4] = tested on: platelets; experiment: platelet function versus PKG activity; type: cell-based
Procedure: as §1

[5] = tested on: platelets; experiment: aggregation of collagen-stimulated platelets; type: cell-based; conditions: preincubation of platelets with 10 nM (D)-DT2
Procedure: as §1

[6] = tested on: PKA; experiment: PKA activity in broken platelet cell experiments; type: biochemical; conditions: broken platelet cells; at these concentrations (starting at 5 µM, complete PKG inhibition at 20 µM)
Procedure: as §1

[7] = tested on: platelets; experiment: calcium mobilization in collagen-stimulated platelets; type: cell-based; conditions: preincubation of platelets with 10 nM (D)-DT2
Procedure: as §1

[8] = tested on: PKG II; experiment: inhibition of PKG II; type: biochemical; conditions: up to 1 µM (D)-DT2
Procedure: as §1

[9] = tested on: platelets; experiment: thrombin-induced calcium mobilization in platelets; type: cell-based; conditions: preincubation of platelets with 10 nM (D)-DT2
Procedure: as §1

[10] = tested on: PKG in intact cells; conditions: ref [1]; cited from earlier work
Source text: Cellular cGMP effects can be mediated by a number of effectors including cGMP-dependent protein kinases (PKGs), cGMP-stimulated phosphodiesterase (PDE2), cGMP-inhibited phosphodiesterase (PDE3), and cGMP-gated channels. Pharmacological inhibitors of PKG are often used to discriminate between these diverse cGMP effects. Currently used PKG inhibitors can be divided into three classes: cyclic nucleotide binding site inhibitors like Rp-phosphorothioate analogs, ATP binding site inhibitors like KT5823, and substrate binding site inhibitors like the recently described DT-oligopeptides. However, seve ...

SMILES: CC(C)C[C@@H](NC(=O)[C@H]1CCCN1C(=O)[C@H]1CCCN1C(=O)[C@@H](CCCNC(=N)N)NC(=O)[C@@H](CCCNC(=N)N)NC(=O)[C@@H](CCCNC(=N)N)NC(=O)[C@@H](CCC(N)=O)NC(=O)[C@@H](CCCNC(=N)N)NC(=O)[C@@H](CCCNC(=N)N)NC(=O)[C@@H](CCCCN)NC(=O)[C@@H](CCCCN)NC(=O)[C@@H](CCCNC(=N)N)NC(=O)CNC(=O)[C@H](N)Cc1ccc(O)cc1)C(=O)N[C@H](CCCNC(=N)N)C(=O)N[C@H](CCCCN)C(=O)N[C@H](CCCCN)C(=O)N[C@H](CCCCN)C(=O)N[C@H](CCCCN)C(=O)N[C@H](CCCCN)C(=O)N[C@H](Cc1c[nH]cn1)C(N)=O [(D)-DT2] (H-[dY]G[dR][dK][dK][dR][dR][dQ][dR][dR][dR][dP][dP][dL][dR][dK][dK][dK][dK][dK][dH]-NH2; N-terminus and C-terminus assumed)
- effect on thrombin-induced platelet aggregation [1]: strongly inhibited
- inhibition of PKA [2]: did not inhibit
- concentration giving complete inhibition of PKG activity ([3]; complete inhibition): 20 µM
- concentration at which PKG inhibition starts [3]: 5 µM
- correlation of effects on platelet function with PKG activity [4]: did not correlate with PKG activity
- effect on aggregation in collagen-stimulated platelets [5]: potentiated
- inhibition of PKA activity [6]: observed inhibition of PKA activity
- effect on calcium mobilization in collagen-stimulated platelets [7]: potentiated
- inhibition of PKG II [8]: did not inhibit
- effect on thrombin-induced calcium mobilization [9]: strongly inhibited

SMILES: COC(=O)[C@@]1(OC)C[C@H]2O[C@]1(C)n1c3ccccc3c3c4c(c5c6ccccc6n2c5c31)C(=O)N(C)C4 [KT5823]
- PKG inhibition in intact cells [10]: no PKG inhibition
